Usually TGI stands for the concentration at which net growth stops. A high value points to lower sensitivity of the cells. In general, GI50 refers to the concentration giving 50% growth inhibition.

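Following 48 hours of exposure in 96-well plates, responses at five concentrations were used to interpolate endpoints linearly. GI50: concentration for 50% inhibition of growth. TGI: total growth inhibition.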 Some results are limits rather than exact numbers.

Among the test systems are M14 melanoma; SN12C renal; OVCAR-4 ovarian; SF-295 CNS; OVCAR-5 ovarian; SK-MEL-2 melanoma; NCI/ADR-RES ovarian; BT-549 breast; DU-145 prostate.
Experiment in all cases: DTP human tumour cell line panel, 48 h

Consider `O=C(c1ccc(Cl)cc1)N(C(=S)N1CCN(c2ccccn2)CC1)C1CCCCC1`, for which the TGI with M14 melanoma, in the test with SN12C renal, in the test with OVCAR-4 ovarian, in the test with SF-295 CNS, in the test with OVCAR-5 ovarian and in the test with SK-MEL-2 melanoma was over 100 µM each time.

Regarding `COC1=CC2(CC(OC)=C1OC)OC21COc2ccccc2C1=O` (stereo not drawn), the TGI in the test on NCI/ADR-RES ovarian, in the test on M14 melanoma, in the test on BT-549 breast, in the test on SN12C renal, with OVCAR-4 ovarian and in the test on SF-295 CNS was over 100 µM throughout. Further, the TGI with OVCAR-5 ovarian and in the test with SK-MEL-2 melanoma was over 100 µM throughout.

Consider `NC1=NS(=O)(=O)Nc2nc(-c3ccccc3)[nH]c21`, for which the TGI with M14 melanoma, in the test with SN12C renal, with OVCAR-4 ovarian, in the test with SF-295 CNS, with OVCAR-5 ovarian and in the test with SK-MEL-2 melanoma was over 100 µM each time.

Turning to `C=C(NC(=O)C(=C)NC(=O)c1csc(C2=NC3c4csc(n4)C4NC(=O)c5csc(n5)C(C(C)(O)C(C)O)NC(=O)C5CSC(=N5)/C(=C/C)NC(=O)C(C(C)O)NC(=O)c5csc(n5)C3(CC2)NC(=O)C(C)NC(=O)C(=C)NC(=O)C(C)NC(=O)C(C(C)CC)NC2C=Cc3c(C(C)O)cc(nc3C2O)C(=O)OC4C)n1)C(N)=O` (stereo not drawn), the TGI was over 100 µM in the test with NCI/ADR-RES ovarian; 3.17 µM in the test on M14 melanoma; 3.93 µM in the test on SN12C renal; over 100 µM in the test on OVCAR-4 ovarian; 12.8 µM in the test with SF-295 CNS; over 51.4 µM in the test with OVCAR-5 ovarian. Moreover, in the test with SK-MEL-2 melanoma, the TGI was found to be 4.12 µM.

For `NC(CSSCC(N)=NCC12CC3CC(CC(C3)C1)C2)=NCC12CC3CC(CC(C3)C1)C2`, the TGI was determined as 33.8 µM in the test with NCI/ADR-RES ovarian; 50.2 µM with M14 melanoma; 31.1 µM in the test with SN12C renal; 45.3 µM in the test with OVCAR-4 ovarian; 31.3 µM in the test on SF-295 CNS; 34.2 µM in the test with OVCAR-5 ovarian. In addition, the total growth inhibition concentration (TGI) in the test on SK-MEL-2 melanoma was 55.1 µM; with DU-145 prostate, 32.5 µM.

Take `COc1ccc([C@@H]2CC(=O)N2)cc1`: the TGI in the test with M14 melanoma, with SN12C renal, in the test with OVCAR-4 ovarian, in the test with SF-295 CNS, in the test on OVCAR-5 ovarian and in the test on SK-MEL-2 melanoma was over 100 µM in each case.

On to `O=C(O)c1ccc(C2=Cc3cc(Cl)ccc3OC2)cc1`, for which the TGI in the test on M14 melanoma, in the test on SN12C renal, in the test on SF-295 CNS, in the test with OVCAR-5 ovarian and in the test with SK-MEL-2 melanoma was over 100 µM each time.

Consider `C=C1C(=O)O[C@@H]2[C@H](O)[C@@H](C)[C@@H]3C=CC(=O)[C@@]3(C)[C@@H](OC(=O)/C(C)=C/C)[C@H]12`, for which the concentration for total growth inhibition (TGI) with NCI/ADR-RES ovarian turned out to be 5.39 µM; with SN12C renal, 2.52 µM; in the test on OVCAR-4 ovarian, 3.05 µM; in the test on SF-295 CNS, 8.34 µM; in the test on OVCAR-5 ovarian it was 8.31 µM; in the test on SK-MEL-2 melanoma it was 2.78 µM.

For the compound `O=[N+]([O-])C(/C=N/Nc1ccccc1)/C=N/Nc1ccccc1`, the TGI with M14 melanoma, in the test on SN12C renal, in the test on OVCAR-4 ovarian, with SF-295 CNS, in the test with OVCAR-5 ovarian and in the test on SK-MEL-2 melanoma was over 100 µM each time.

Regarding `COc1c2c(c3ccccc3c1O)C1C=CC2C1` (stereo not drawn), the TGI is 27.9 µM with M14 melanoma; 28.5 µM in the test on SN12C renal; 28.7 µM in the test on OVCAR-4 ovarian; 33.9 µM with OVCAR-5 ovarian; 31.5 µM in the test with SK-MEL-2 melanoma.

For `O=C(c1ccccc1)C1S(=O)(=O)OCCOS1(=O)=O`, the TGI in the test with M14 melanoma, with SN12C renal, with OVCAR-4 ovarian, in the test on SF-295 CNS and in the test on SK-MEL-2 melanoma was over 100 µM in each case.

In the case of `CCN(CC)CCN1C(=O)c2c(c3c4ccccc4[nH]c3c3ccc4ccccc4c23)C1=O`, the GI50 in the test on NCI/ADR-RES ovarian was 1590 nM; in the test with SN12C renal it was 1710 nM; with OVCAR-4 ovarian, 1580 nM; in the test on SF-295 CNS, 722 nM; in the test with OVCAR-5 ovarian it was 1640 nM; in the test with SK-MEL-2 melanoma it was 2510 nM. Besides, in the test with DU-145 prostate, the GI50 is 1650 nM. For the same compound, the TGI was found to be 4.15 µM in the test with NCI/ADR-RES ovarian; 3.22 µM in the test with SN12C renal; 2.96 µM with OVCAR-4 ovarian; 2.03 µM with SF-295 CNS; 3.09 µM in the test with OVCAR-5 ovarian; 6.5 µM with SK-MEL-2 melanoma. Moreover, the TGI in the test on DU-145 prostate amounted to 3.06 µM.

As to `O=C1/C=C(/c2ccc(O)cc2)[C@@H](O)Cc2ccc(O)cc2O1`, the TGI in the test on M14 melanoma, in the test on SN12C renal, in the test with OVCAR-4 ovarian, in the test with SF-295 CNS, with OVCAR-5 ovarian and in the test on SK-MEL-2 melanoma was over 100 µM each time.

Turning to `CCOC(=O)C(Cc1c[nH]c2cc([N+](=O)[O-])ccc12)NS(=O)(=O)c1ccc2ccccc2c1` (stereo not drawn), the TGI in the test on M14 melanoma stood at 34.1 µM; in the test with SN12C renal it was 34.4 µM; in the test with OVCAR-4 ovarian, 28 µM; in the test with SF-295 CNS, 32.5 µM; in the test on SK-MEL-2 melanoma it was 35.1 µM.

Values taken from PubChem BioAssay (NCI).
